Results as given in US20220153746A1, “NITROGEN OXIDE-DONATING PDE-5 AND/OR PDE-6 INHIBITOR COMPOUNDS, AND USES THEREOF” (ILDONG PHARMACEUTICAL CO., LTD., priority 2020, published 2022).
Like-named read-outs stand apart in the source and are kept apart here.

Assay: TD Phase (Groups 1 and 3): plasma and ocular tissue concentrations and pharmacokinetics of Compound 18 and its metabolite Compound 4 after once daily ocular instillation of Compound 18 nanosuspension for 7 days
Type: in vivo, New Zealand white rabbits
Conditions: for concentration at 2 h / concentration at 4 h / concentration at 8 h / concentration at 0.5 h / concentration at 1 h / Cmax / Tmax / AUC(0-t) / half-life: male, New Zealand white, rabbit; for concentration at 2 h / concentration at 4 h / concentration at 8 h / concentration at 0.5 h / concentration at 1 h: TD Phase; for concentration at 2 h: Group 3, 2 h; for concentration at 4 h: Group 3, 4 h; for concentration at 8 h: Group 3, 8 h; for concentration at 0.5 h: Group 3, 0.5 h; for concentration at 1 h: Group 1, 1 h; for Cmax / Tmax / AUC(0-t) / half-life: topical or ocular; for AUC(0-t): read-out: AUC0-8
Text: This example illustrates the procedures and results for the levels of Compound 18 and its metabolite Compound 4 in plasma and ocular tissues of normotensive rabbits following ocular instillation of Compound 18 once daily for 7 consecutive days.
Twenty five (25) male New Zealand white rabbits were divided into 5 groups of varying amounts of animals per group.
The Test article, Compound 18 was formulated as a 2% nanosuspension in DI water containing 0.2% PS80 (polyoxyethylenesorbitan, monooleate (Tween 80)) and 0.4% HPMC (hydroxypropylmethylcellulose) at pH 6.77. Referred to herein as “Compound 18 nanosuspension.”
The study consisted of three groups (Groups 1-3) of 19 male rabbits (NZW) that underwent once daily morning ocular installation (1 eyedrop) for 7 consecutive days (Day 0-6). Groups 4-5 each consisted of 3 male rabbits (NZW) that were not dosed.
Blood samples (1 mL) were collected from the jugular vein at the intervals set out below for each group. The samples were then inverted several times following collection and held on wet ice until centrifuged. Samples were centrifuged within 60 minutes of collection under refrigeration (set at 5° C. for 10 minutes at 2000 g.
Group 1 (Pilot Study, terminal blood collection): blood was collected from 3 animals at 1 hour post day 7 dose of Compound 18 nanosuspension.
Group 3 (TD Phase, terminal blood collection): blood was collected from 3 animals at 0.5 hour, 3 animals at 2 hours, 3 animals at 4 hours, and 3 animals at 8 hours post day 7 dose of Compound 18 nanosuspension.
(§1) Group 1 (Pilot Study): 3 animals were terminated at 1 hour post Day 7 dose of Compound 18 nanosuspension. Following blood collection and termination, ocular tissues (aqueous humor, vitreous humor, cornea, iris/ciliary body, lens, optic nerve, retina, sclera/choroid, and trabecular meshwork) were collected from each animal and the tissue weights were recorded. Note: sclera and choroid were collected together. Iris and ciliary body were collected together.
as §1, with “3 (TD Phase):” for “1 (Pilot Study):”, “0.5 hour, 3 animals at 2 hours, 3 animals at 4 hours, and 3 animals at 8 hours” for “1 hour”
Plasma and tissue samples from treated animals (Groups 1-3) were analyzed for Compound 18 and its metabolite Compound 4 concentrations by LC-MS/MS.
Pharmacokinetic analysis was conducted using WinNonlin Version 6.2.1 (Pharsight, Mountain View, Calif.), operating as a validated software system. Noncompartmental analysis was conducted using the extravascular administration model for ocular instillation dosing.
The peak plasma and ocular tissue concentration, time to achieve peak plasma and ocular tissue concentration, half-life, and area under the plasma and ocular tissue concentration-time curve (Cmax, Tmax, T1/2, and AUC) were calculated from the TD phase combined with the pilot study mean animal plasma and ocular tissue concentrations for each sampling time/dose group for Compound 18 and its metabolite Compound 4.
BA Assay: Quantitation Range 0.05 to 100 ng/mL for Compound 18, 0.15 to 100 ng/mL for Compound 4.
3. Pipet 50 μL of each type of pre-spiked ocular tissue samples (AH/VH) for QC samples, 50 μL of incurred aqueous humor, and vitreous humor sample (if applicable) into a 96 well plate.
Ocular Tissues Homogenate Preparation: Incurred rabbit ocular tissues were weighed in Genogrinder tubes (plastic tubes with small beads) at the time of removal from the animal and stored frozen (<−70° C.) until analysis. The rabbit incurred ocular tissues were thawed on wet ice. […]

[1] = iris/ciliary body, topical, 2 mg/day, Mean, read-out: Final Compound 18 Iris/Ciliary Body Conc.
[2] = lens homogenate, topical, 2 mg/day, individual animals, homogenate dilution factor 5, read-out: Compound 18 Lens Homogenate Conc.
[3] = lens, topical, 2 mg/day, Mean, read-out: Final Compound 18 Lens Conc.
[4] = lens, topical, 2 mg/day, individual animals, BQL set to 0, read-out: Final Compound 18 Lens Conc.
[5] = optic nerve, other: ocular instillation (eye drop), 0.798 mg/kg/day, Mean, read-out: Final Compound 18 Optic Nerve Conc.
[6] = plasma, other: ocular instillation (eye drop), 0.8 mg/kg/day, Mean, BQL set to 0, read-out: Compound 18 Plasma Conc.
[7] = plasma, other: ocular instillation (eye drop), 0.8 mg/kg/day, individual animals, read-out: Compound 18 Plasma Conc.
[8] = plasma, other: ocular instillation, 0.8 mg/kg/day, Mean, BQL set to 0, read-out: Compound 18 Plasma Conc.
[9] = retina, other: ocular instillation (eye drop), 0.798 mg/kg/day, Mean, read-out: Final Compound 18 Retina Conc.
[10] = sclera/choroid, other: ocular instillation (eye drop), 0.798 mg/kg/day, Mean, read-out: Final Compound 18 Sclera/Choroid Conc.
[11] = 0.8 mg/kg/day, aqueous humor, Day 7, from mean concentrations
[12] = 0.8 mg/kg/day, cornea, Day 7, from mean concentrations
[13] = 0.8 mg/kg/day, iris/ciliary body, Day 7, from mean concentrations
[14] = 0.8 mg/kg/day, lens, Day 7, from mean concentrations
[15] = 0.8 mg/kg/day, optic nerve, Day 7, from mean concentrations
[16] = 0.8 mg/kg/day, plasma, Day 7, from mean concentrations
[17] = 0.8 mg/kg/day, retina, Day 7, from mean concentrations
[18] = 0.8 mg/kg/day, sclera/choroid, Day 7, from mean concentrations
[19] = 0.8 mg/kg/day, trabecular meshwork, Day 7, from mean concentrations
[20] = 0.8 mg/kg/day, vitreous humor, Day 7, from mean concentrations
[21] = trabecular meshwork, other: ocular instillation (eye drop), 0.798 mg/kg/day, Mean, read-out: Final Compound 18 Trabecular Meshwork Conc.
[22] = vitreous humor, other: ocular instillation (eye drop), 0.8 mg/kg/day, Mean, BQL set to 0, read-out: Compound 18 Vitreous Humor Conc.
[23] = vitreous humor, other: ocular instillation (eye drop), 0.8 mg/kg/day, individual animals, read-out: Compound 18 Vitreous Humor Conc.

CCCc1nn(C)c2c(=O)[nH]c(-c3cc(S(=O)(=O)N4CC(CCCO[N+](=O)[O-])C4)ccc3OCC)nc12 [Compound 18, 3-(1-((4-ethoxy-3-(1-methyl-7-oxo-3-propyl-6,7-dihydro-1H-pyrazolo[4,3-d]pyrimidin-5-yl)phenyl)sulfonyl)azetidin-3-yl)propyl nitrate]
concentration at 2 h [1]: 5.56 ng/g | concentration at 4 h [1]: 4.87 ng/g | concentration at 8 h [1]: 0.967 ng/g | concentration at 0.5 h [2]: 1.27 ng/mL | concentration at 4 h [2]: 0.0767 ng/mL | concentration at 8 h (lens, other: ocular instillation (eye drop), 0.798 mg/kg/day, Mean, read-out: Final Compound 18 Lens Conc.): 0 ng/g | concentration at 1 h [3]: 0 ng/g | concentration at 1 h [4]: 0 ng/g | concentration at 0.5 h [3]: 2.12 ng/g | concentration at 2 h [3]: 0 ng/g | concentration at 2 h [4]: 0 ng/g | concentration at 4 h [3]: 0.128 ng/g | concentration at 8 h [4]: 0 ng/g | concentration at 1 h (optic nerve homogenate, other: ocular instillation (eye drop), 0.798 mg/kg/day, individual animals, homogenate dilution factor 20, read-out: Compound 18 Optic Nerve Homogenate Conc.): 11.8 ng/mL | concentration at 1 h [5]: 231 ng/g | concentration at 1 h (optic nerve, other: ocular instillation (eye drop), 0.798 mg/kg/day, individual animals, read-out: Final Compound 18 Optic Nerve Conc.): 236 ng/g | concentration at 0.5 h [5]: 110 ng/g | concentration at 2 h [5]: 378 ng/g | concentration at 4 h [5]: 128 ng/g | concentration at 8 h [5]: 61.6 ng/g | concentration at 2 h [6]: 0.0397 ng/mL | concentration at 2 h [7]: 0.119 ng/mL | concentration at 8 h [6]: 0.0172 ng/mL | concentration at 8 h [7]: 0.0517 ng/mL | concentration at 1 h [8]: 0.0407 ng/mL | concentration at 1 h (plasma, other: ocular instillation, 0.8 mg/kg/day, individual animals, read-out: Compound 18 Plasma Conc.): 0.0641 ng/mL | concentration at 0.5 h [8]: 0.261 ng/mL | concentration at 0.5 h (retina homogenate, other: ocular instillation (eye drop), 0.798 mg/kg/day, individual animals, homogenate dilution factor 20, read-out: Compound 18 Retina Homogenate Conc.): 0.798 ng/mL | concentration at 1 h [9]: 18.1 ng/g | concentration at 0.5 h [9]: 22 ng/g | concentration at 0.5 h (retina, other: ocular instillation (eye drop), 0.798 mg/kg/day, individual animals, BQL set to 0, read-out: Final Compound 18 Retina Conc.): 16 ng/g | concentration at 2 h [9]: 34.8 ng/g | concentration at 4 h [9]: 27.3 ng/g | concentration at 8 h [9]: 7.17 ng/g | concentration at 1 h (sclera/choroid homogenate, other: ocular instillation (eye drop), 0.798 mg/kg/day, individual animals, homogenate dilution factor 8, read-out: Compound 18 Sclera/Choroid Homogenate Conc.): 3.89 ng/mL | concentration at 1 h [10]: 45.3 ng/g | concentration at 1 h (sclera/choroid, other: ocular instillation (eye drop), 0.798 mg/kg/day, individual animals, read-out: Final Compound 18 Sclera/Choroid Conc.): 31.1 ng/g | concentration at 0.5 h [10]: 107 ng/g | concentration at 2 h [10]: 246 ng/g | concentration at 4 h [10]: 241 ng/g | concentration at 8 h [10]: 26.8 ng/g | Cmax [11]: 0.063 ng/mL | Tmax [11]: 1 h | AUC(0-t) [11]: 0.0158 ng·h/mL | Cmax [12]: 181 ng/g | Tmax [12]: 1 h | half-life [12]: 1.33 h | Cmax [13]: 107 ng/g | Tmax [13]: 1 h | half-life [13]: 2.25 h | Cmax [14]: 2.12 ng/g | Tmax [14]: 0.5 h | half-life [14]: 0.865 h | Cmax [15]: 378 ng/g | Tmax [15]: 2 h | half-life [15]: 2.43 h | Cmax [16]: 0.261 ng/mL | Tmax [16]: 0.5 h | AUC(0-t) [16]: 0.255 ng·h/mL | Cmax [17]: 34.8 ng/g | Tmax [17]: 2 h | half-life [17]: 2.54 h | Cmax [18]: 246 ng/g | Tmax [18]: 2 h | half-life [18]: 1.76 h | Cmax [19]: 7.67 ng/g | Tmax [19]: 1 h | half-life [19]: 2.64 h | Cmax [20]: 0.0257 ng/mL | Tmax [20]: 0.5 h | AUC(0-t) [20]: 0.0242 ng·h/mL | Cmax (Cornea, Day 7, Compound 18 0.8 mg/kg ocular instillation once daily, Groups 1 and 3): 181 ng/g | concentration at 1 h [21]: 7.67 ng/g | concentration at 0.5 h [21]: 7.01 ng/g | concentration at 2 h [21]: 11.8 ng/g | concentration at 4 h [21]: 5.52 ng/g | concentration at 8 h (trabecular meshwork, other: ocular instillation, 0.8 mg/kg/day, Mean, read-out: Final Compound 18 Trabecular Meshwork Conc.): 1.93 ng/g | concentration at 0.5 h [22]: 0.0257 ng/mL | concentration at 0.5 h [23]: 0.0771 ng/mL | concentration at 2 h [22]: 0.0228 ng/mL | concentration at 2 h [23]: 0.0683 ng/mL | AUC0-8 (optic nerve, Day 7, from mean concentrations): 1302 ng·h/g | AUC0-8 (retina, Day 7, from mean concentrations): 173 ng·h/g | AUC0-8 (sclera/choroid, Day 7, from mean concentrations): 1234 ng·h/g | AUC0-8 (trabecular meshwork, Day 7, from mean concentrations): 32.4 ng·h/g
